Results: patent publication US6903183B1, “Compositions and methods for regulation of steroidogenesis” (Texas Tech University Health Services Center, priority 1996, dated 2005)
Entries after “also recorded” stand apart in the source; their conditions may differ. No end group written: not given here.

What was measured:
[1] = system: StAR protein; experiment: Immunoblot of StAR protein expression in H295R cells; type: cell-based, human; details: for amount of StAR protein: treatment of H295R cells with agonist
Description: (§1) FIG. 4. Effect of KN93 on agonist-stimulated aldosterone production and StAR protein expression in H295R cells. […] The medium aldosterone content was determined by R.I.A. and normalized to the tissue culture well protein content. Data points represent the mean ±SE of values from six separate culture wells expressed as fold increase over basal. Significant inhibition relative to the control response is indicated at *p<0.01. StAR protein was examined using equivalent amounts of total cellular lysate (30 μg) by immunoblot analysis as described in the Methods. Results are representative of those obtained from three separate experiments.
For each treatment, cells were solubilized as described above and an equivalent amount of protein (30 μg) for each sample were separated by SDS-PAGE (12.5%) and then electrophoretically transferred to polyvinylidene difluoride membrane as previously described (Clark et al (1994) J. Biol. Chem., 269:2831-322, reference specifically incorporated herein by reference). Immunoblot analysis was as described (Id) using a rabbit sera containing the specific StAR antipeptide antibody (see ANTIBODIES infra) as the primary label and a donkey anti-rabbit IgG conjugated with horseradish peroxidase (Amersham, Arlington Heights, Ill.). The specific signal was detected by chemiluminescence assays using the Renaissance kit from DuPont NEN (Boston, Mass.) and the StAR specific bands were quantitated by BioImage Visage 2000 computer-assisted image analysis (BioImage, Ann Arbor, Mich.). Different exposure times were used to insure linearity.

[2] = system: StAR protein; experiment: Synthesis of StAR protein in MA-10 cells after CRH, dbcAMP or hCG; type: cell-based, mouse; details: for time of maximal response following stimulation: CRH at 1 μM
[3] = system: StAR mRNA; experiment: Northern blot analysis of StAR mRNA in MA-10 cells; type: cell-based, mouse
Description: MA-10 cells were stimulated with Bt2cAMP and StAR mRNA levels were determined by Northern blot analysis. Within 1 hour of Bt2cAMP stimulation, two major transcripts of approximately 3400 nt and 1600 nt, and one minor transcript of 2700 nt, were detected. […] Subsequent to the marked mRNA induction, the greatest induction (10x) in StAR protein was detected after 4 hours of Bt2cAMP stimulation by immunoblot analysis. Comparatively lower levels of StAR could be detected after 1 hour of hormone stimulation with maximal levels accumulated within 8 hours.

[4] = system: StAR protein; experiment: Immunoblot analysis of 30 kDa (StAR) protein in MA-10 cells; type: cell-based, mouse
Description: Immunoblot Analysis. Mitochondria were isolated from either MA-10 or COS 1 cells transfected with either pCMV or pCMV+30 kDa cDNA 48 hours post-transfection. For experiments in which progesterone production was measured (as described above), cells were solubilized directly in the well with 0.1% SDS, the cell homogenates were collected and combined from all 8 wells, and the protein was precipitated using trichloracetic acid. The protein was solubilized in sample buffer (25 mM Tris/Cl, pH 6.8, 1% SDS, 5% β-mercaptoethanol, 1 mM EDTA, 4% glycerol, and 0.01% bromophenol blue) and loaded onto a 12.5% SDS-PAGE minigel (Mini-Protein II System, Bio-Rad, Richmond, Calif.). […] The membrane was washed as before, and the specific signal was detected by chemiluminescence using the Renaissance kit from Du Pont-NEN.
In order to verify that the cDNA was being expressed in eukaryotic cells, COS 1 cells were used to transfect the pCMV+30 kDa cDNA since the pCMV plasmid can be replicated in these cells and approximately 80% of the cells are transfected with plasmid DNA based on the expression of reporter protein. Forty-eight hours post-transfection, mitochondria were isolated and the 30 kDa protein expression was determined by immunoblot analysis. […] In addition, a 36.5 kDa protein was detected in the COS 1 cells which would be consistent with the precursor protein. […]

[5] = system: bovine zona glomerulosa cells; experiment: Cholesterol content of submitochondrial fractions (cholesterol oxidase assay); type: cell-based
Description: Freshly-prepared bovine zona glomerulosa cells were stimulated with Ang II (10 nM) or submitted to a cytosolic Ca^2+ clamp (600 nM) for 2 h. Mitochondria were isolated and subfractionated into outer membranes (OM), inner membranes (IM) and contact sites (CS). Cholesterol content was determined by the cholesterol oxidase assay.
Freshly-prepared bovine zona gomerulosa cells were stimulated with Ang II (10 nM) or submitted to a cytosolic Ca^2+ clamp (600 nM) for 2 h, as described in Example 9. Mitochondria were isolated and subfractionated into outer membranes (OM), inner membranes (IM) and contact sites (CS). Cholesterol content was determined by the cholesterol oxidase assay, also as described in Example 9.

[6] = system: StAR protein; experiment: Western blot of StAR protein in mitochondria of glomerulosa cells; type: cell-based, bovine
[7] = system: H295R cells; experiment: Agonist-stimulated aldosterone production (steroidogenesis) in H295R cells; type: cell-based, human
Description: as §1
The human adrenocortical carcinoma-derived cell line (H295R) was used. This cell line secretes multiple steroids, including aldosterone and cortisol. […]
Subcultured cells were maintained 24 hours in DME/F12 medium containing 0.2% calf serum, 0.01% BSA and antibiotics (low serum). […] The aldosterone and cortisol contents of medium recovered from each well were determined with aldosterone and cortisol standards prepared in low-serum medium by commercial aldosterone and cortisol radioimmunoassays (Diagnostic System Laboratories; Webster, Tex.). Results of aldosterone and cortisol assays were normalized to cellular protein per well, expressed as pmol per mg cell protein and transformed to percentage of the control response where indicated. […]

[8] = system: Y-1 adrenal tumor cells; experiment: Overexpression of DAX-1 in Y-1 adrenal tumor cells; type: cell-based, mouse
[9] = molecular target: protein complex purified from MA-10 cell mitochondrial membranes; experiment: competition against 35S-labeled StAR signal peptide on liposomes carrying the complex, gel filtration
[10] = system: mitochondria isolated from MA-10 mouse Leydig tumor cells; experiment: In vitro reconstituted system: pregnenolone synthesis by isolated mitochondria; type: biochemical; details: protein added to isolated mitochondria
Source text: Rat heart mitochondria were used for the import assay with bovine StAR, indicating import of StAR is not dependent upon factors specific to mitochondria isolated from steroidogenic tissues. The ability of StAR to increase steroid production has also been confirmed in an in vitro reconstituted system.

COC(=O)C1=C(C)NC(C)=C([N+](=O)[O-])C1c1ccccc1C(F)(F)F (stereo not drawn) [Bay K, (=)-Bay K 8644] was tested, and the “amount of StAR protein” value [1] was “increased; also recorded: elevated”.

For “CRH: Corticotropin-Releasing Hormone (SEEPPISLDLTFHLLREVLEMARAEQLAQQAHSNRKLMEII; ends and bridges not checked; UniProt P06850 154-194, looked up)”, the “concentration of maximal response (StAR synthesis)” value [2] was 1 µM, the “synthesis of the StAR protein” value [2] was “dose-dependent increase” and the “time of maximal response following stimulation” value [2] was 4 h. For the same molecule, the “level of StAR synthesis versus maximal doses of CRH or hCG alone” value ([2]; in the presence of hCG) was “higher level”.

In the case of [Cl-].[K+] [K^+, potassium chloride], the “amount of StAR protein” value [1] is reported as “increased; also recorded: elevated”.

For CCCC(=O)Nc1ncnc2c1ncn2[C@@H]1O[C@@H]2COP(=O)(O)O[C@H]2[C@H]1OC(=O)CCC [Bt2cAMP, N^6, 2′-O-dibutyryladenosine-3′:5′-cyclic monophosphate], the “concentration of maximal response (StAR synthesis)” value [2] was 1 µM, the “synthesis of the StAR protein” value [2] was “dose-dependent increase” and the “time of maximal response following stimulation” value [2] was 6 h. The “time to maximal StAR mRNA levels” value [3] was 6 h, the “StAR mRNA induction” value ([3]; after 2 hours of stimulation) was 20 x and the “time to maximal accumulated StAR protein levels” value [4] was ≤ 8 h. For the same molecule, the StAR protein induction ([4]; after 4 hours of stimulation) was 10 x.

For [Ca+2] [Ca^2+], the “cholesterol content of OM” value ([5]; cytosolic Ca2+ clamp 600 nM, 2 h, n=5) was 54±24 % of controls and the “StAR protein in mitochondrial extracts” value ([6]; Ca2+ stimulation, cycloheximide-sensitive, n=5) was 141±14 % of controls.

In the case of “[Val^5]-Angiotensin II acetate (DRVYVHPF; also: acetate salt; UniProt P01019 25-32, looked up, variant I5V) [Ang II]”, the “amount of StAR protein” value [1] is reported as “increased; also recorded: elevated”, the OM cholesterol ([5]; Ang II 10 nM, 2 h) is reported as “No significant changes” and the “cholesterol in contact sites (CS)” value ([5]; Ang II 10 nM, 2 h, n=3) is reported as 172±28 % of controls. The StAR protein ([6]; Ang II stimulated glomerulosa cells, n=2) was 157 % of controls and the “StAR in IM” value ([6]; Ang II stimulation) was “increased”.

With C[C@@H]1C[C@@H]([C@H](O)CC2CC(=O)NC(=O)C2)C(=O)[C@@H](C)C1 [Cycloheximide] the “Ca2+-activated cholesterol transfer to IM” value [5] was “significantly reduced” and the “effect on Ang II increase of StAR in IM” value [6] was “prevented”.

COc1ccc(S(=O)(=O)N(CCO)c2ccccc2CN(C)CC=Cc2ccc(Cl)cc2)cc1 [KN93, 2-[N-(2-hydroxyethyl)-N-(4-methoxybenzenesulfonyl)]amino-N-(4-chlorocinnamyl)-N-methylbenzylamine] was tested, and the aldosterone production ([7]; KN93 3 μM) was “potently inhibited”, the block of steroidogenesis ([7]; KN93 between 1 and 3 μM) was 60 to 80% and the “induction of StAR protein by Ang II, K+, or Bay K” value ([1]; KN93 between 1 and 3 μM) was “did not affect”. For the same molecule, the “agonist-induction of StAR protein expression” value ([1]; co-treatment with KN93 3 μM) was “not affected”.

B1: DAX-1: transcription repressor, unusual member of the nuclear hormone receptor superfamily, overexpressed in Y-1 cells (protein, UniProt Q61066 1-472, looked up)
Nuclear receptor subfamily 0 …: MAGEDHPWQGSILYNLLMSAKQKHASQEEREVRLGAQCWGCACGAQPVLGGERLSGGQARSLLYRCCFCGENHPRQGGILYSMLTNARQPSVATQAPRARFGAPCWGCACGSAEPLVGREGLPAGQAPSLLYRCCFCGEEHPRQGSILYSLLTSAQQTHVSREAPEAHRRGEWWQLSYCTQSVGGPEGLQSTQAMAFLYRSYVCGEEQPQQISVASGTPVSADQTPATPQEQPRAPWWDASPGVQRLITLKDPQVVCEAASAGLLKTLRFVKYLPCFQILPLDQQLVLVRSCWAPLLMLELAQDHLHFEMMEIPETNTTQEMLTTRRQETEGPEPAEPQATEQPQMVSAEAGHLLPAAAVQAIKSFFFKCWSLNIDTKEYAYLKGTVLFNPDLPGLQCVKYIEGLQWRTQQILTEHIRMMQREYQIRSAELNSALFLLRFINSDVVTELFFRPIIGAVSMDDMMLEMLCAKL
B1 was tested, and the “StAR mRNA and protein synthesis” value [8] was “inhibition” and the steroid synthesis [8] was “complete inhibition”.

B2: StAR signal peptide (unlabeled, commercially synthesized) (peptide)
peptide: MFLATFKLCAGSSYRHMRNMKGLRHQ
Molecule B2 has a reduction of total radioactivity in the liposome fraction [9] of 65%.

B3: adrenodoxin: another mitochondrial imported protein (protein, UniProt P10109 61-184, looked up)
Adrenodoxin, mitochondrial: SSSEDKITVHFINRDGETLTTKGKVGDSLLDVVVENNLDIDGFGACEGTLACSTCHLIFEDHIYEKLDAITDEENDMLDLAYGLTDRSRLGCQICLTKSMDNMTVRVPETVADARQSIDVGKTS
For B3, the pregnenolone synthesis [10] was “not affected”.
